Peptide text beside a SMILES is read from it. * marks the point of attachment. Cbz = O=C(OCc1ccccc1)*

Experimental findings from US10105384B2, “Nucleic acids targeting TCTP for use in the treatment of chemo- or hormone-resistant cancers” (INSTITUT NATIONAL DE LA SANTE ET DE LA RECHERCHE MEDICALE …, priority 2010, dated 2018) are described below.

Common to all, as to type: cell-based, human
The test system of one data set is PC-3 cells. Put plainly: MTT cell growth assay, PC-3 cells. Particulars: PC-3 cells, 50 nM docetaxel 24 h, MTT. Here is the method: In brief, cells were seeded in each well of 12-well microtiter plates (30 000 to 50 000 cells per well) and allowed to attach overnight. To study the effect of TCTP downregulation on apoptosis induced by docetaxel, PC-3 cells were transiently transfected the day after seeding with 5 nM of TCTP siRNA for 48 h or 100 nM of TCTP ASO for 72 h. Cells were then treated with 50 nM of docetaxel and MTT assays were performed after 24 h. To assess the effect of TCTP downregulation on Hsp27 cytoprotection, LNCaP-Mock and -Hsp27 cells were transiently transfected the day after seeding with 5 nM of TCTP siRNA for 48 h. The down- or upregulation of TCTP effect on LNCaP and C4-2 cell viability was realized after transient transfections with 100 nM of TCTP ASO or 0.02 μg/μl of pDEST-TCTP for 72 h and 48 h respectively. Cells were then treated with 1 nM of docetaxel in serum-free media (mimics androgen withdrawal in vitro) and crystal violet assays were performed the day after. Each assay was performed in triplicate.
To assess the effect of TCTP down-regulation on CR cell growth, PC-3 cells were treated for 1 day with 5 nM TCTP siRNA or for 2 days with 100 nM TCTP ASO. At the end of the treatment, PC-3 cells were incubated with 50 nM of docetaxel. Growth rates of PC-3 cells were examined using the 3-(4,5-dimethylthiazol-2-yl)-2,5-diphenyltetrazolium bromide assay. […] The effect of the inhibition of TCTP on cell survival was analyzed in PC-3 after combined ASO and docetaxel-chemotherapy treatment. After 24 h of treatment with 50 nM of docetaxel, cell viability was determined using a MTT assay. The experiment was repeated in triplicate. *** differs from PC-3 transfected with control-siRNA (P50.001) using Statview software. […] The same effect has been observed with TCTP siRNA (SEQ ID NO: 3) and 5′-[…]-3′ (SEQ ID NO: 14) and 5′-[…]-3′ (SEQ ID NO: 15) ASOs.
PC3 cells were transfected with a TCTP siRNA of SEQ ID NO: 3. Cell proliferation and apoptosis were studied using respectively MTT (3-(4,5-dimethylthiazol-2-yl)-2,5-diphenyl tetrazolium bromure) assay and flow cytometry.
PC3 cells were transfected with a TCTP ASO of SEQ ID NO: 2. Cell proliferation and apoptosis were studied using respectively MTT assay and flow cytometry.

For data set [1], the system named is TCTP. Put plainly: ASO sequences screening: TCTP expression by western blot and/or qRT-PCR. Particulars: WB and/or qRT-PCR, PC-3 cells overexpressing TCTP. The procedure:
(§1) Western Blot analysis was performed as described previously (Rocchi et al., 2004, Cancer Res. 64:6595-602) with 1:5000 rabbit anti-Hsp27 polyclonal antibody (Assay Designs, Villeurbanne, France), 1:2000 rabbit TCTP polyclonal antibody (Abcam Inc., Cambridge, UK), 1:250 rabbit anti-MSL1v1 polyclonal antibody (Abcam Inc.), 1:500 mouse anti-ubiquitin monoclonal antibody (Santa Cruz Biotechnology Inc., Heidelberg, Germany) or 1:1000 rabbit anti-caspase-3 polyclonal antibody (Cell Signalling Technology Inc., Danvers, USA). Loading levels were normalized using 1:5000 rabbit anti-glyceraldehyde-3-phosphate dehydrogenase polyclonal (Abcam Inc.) or 1:2500 mouse anti-vinculine monoclonal antibodies (Sigma Chemical Co., St Louis, Mo., USA).
The quantitative reverse transcription polymerase chain reaction (qRT-PCR) analysis was done on a LightCycler detection system (Roche Applied Science, Meylan, France). Expression levels of 18S subunit of the ribosome gene were used as an internal control. First strand cDNA was synthesized from 1 μg of total RNA using random hexamers and expanded by reverse transcriptase according to the manufacturer's instructions (ImProm-II Reverse Transcription System, Promega, Charbonniéres-les-Bains, France), subsequently diluted 1:10 with water, and stored at −20° C. until use. TCTP and 18S polymerase chain reaction (PCR) products were detected by quantitative real time PCR (qRT-PCR) using the SYBR Premix Ex Taq (Takara Bio Inc, St Germain en Laye, France) following the manufacturer's instructions. Five microliters of diluted cDNA template were mixed with 10 μl SYBR Premix Ex Taq (including Taq polymerase, reaction buffer, MgCl2, SYBR green I dye, and deoxynucleotide triphosphate mix) and 0.4 μM forward and reverse primers, in a final volume of 20 μl. The following primers were used: TCTP forward 5′-[…]-3′ (SEQ ID NO: 8) and TCTP reverse 5′-[…]-3′; (SEQ ID NO: 9); 18S forward 5′-[…]-3′ (SEQ ID NO: 10) and 18S reverse 5′-[…]-3′ (SEQ ID NO: 11). After an initial Taq activation for 10 seconds at 95° C., Light Cycler PCR was done using 55 cycles with the following cycling conditions: 95° C. for 5 seconds, 58° C. for 7 seconds, and 72° C. for 14 seconds. Each sample was analyzed in duplicate and the experiment was repeated three times. Results were analyzed using RealQuant data analysis software (Roche, Neuilly-sur-seine, France). The results analysis was done with the 2(-Delta Delta C(T)) Method (Livak K J. et al., 2001; Methods. 25:402-8).
In order to find a sequence ASO having an inhibiting effect on TCTP expression, 30 ASO sequences have been designed 26 of which are shown in table 1. Said 30 sequences cover the TCTP mRNA (accession number NM_003295). Using BLAST program, the specificity of said sequences has been studied. Among said 30 sequences, only 15 sequences have been identified as being specific for TCPT mRNA sequence (see table 1). The effect of said ASO sequences on TCTP expression was tested by western blot analysis (WB) and/or by quantitative reverse transcription polymerase chain reaction (qRT-PCR) on PC-3 cells overexpressing TCTP. WB and qRT-PCR were performed as exposed in example 1.

Data set [2] concerns TCTP. The data set can be described thus: TCTP level in LNCaP cells after Hsp27 down-regulation by OGX-427 (western blot, mRNA). Here is the method: as §1
2′-O-(2-rnethoxyethyl) ASO, OGX-427, was obtained from OncoGenex. The sequence of OGX-427 corresponds to the human Hsp27 translation initiation site (5′-GGGACGCGG-CGCTCGGTCAT-3′) (SEQ ID NO: 12). A mismatch ASO (ASO; 5′-[…]-3′) (SEQ ID NO: 13) was used as a control. The TCTP phosphorithioate ASO targeting the human TCTP (5′-[…]-3′) (SEQ ID NO: 2) and the control oligonucleotide (5′-CGTGTAGGTACGGCAGATC-3′) (SEQ ID NO: 4) were purchased from Operon (Eurofin MWG, Courtaboeuf, France) and designated ASO TCTP or ASO scrambled. […]

For data set [3], the system named is TCTP. Put plainly: TCTP half-life / proteasomal degradation in PC-3 cells (western blot). Conditions: for TCTP protein levels decrease: PC-3 cells, cycloheximide alone 20 μg/ml. The procedure: Cells were plated at a density of 25,000 (PC-3) and 75 000 (LNCaP and C4-2) by 1.9 cm^2 and treated the day after with indicated siRNA or ASO for 1 or 2 days respectively. Oligofectamine, a cationic lipid (Invitrogen), was used to increase siRNA or ASO uptake into the cells. Cells were treated with indicated siRNA or ASO concentrations after a preincubation for 20 min with […] of oligofectamine in serum free OPTI-MEM (Invitrogen). Four hours later, 1 ml of FCS was added in the medium. […]
To determine whether the ubiquitination of TCTP results in its proteasomal degradation, TCTP half-life was determined after OGX-427 treatment, in the presence or absence of the proteasome inhibitor MG132 and protein synthesis inhibitor cycloheximide after 2 days.

Turning to “5′-AACTTGTTTCCTGCAGGTGA-3′ (all phosphorothioate, sugars by position and methylation of C not given here) [ASO15]”, in the data set on PC-3 cells, the “enhancement of docetaxel sensitivity” value is “same effect”. Moreover, in the data set on TCTP [1], the “ability to inhibit TCTP expression” value was “strong ability to inhibit TCTP expression” and the “best ability to inhibit specifically TCTP expression” value is “best ability to inhibit specifically TCTP expression”.

With “5′-GGGACGCGG-CGCTCGGTCAT-3′ (antisense GGGACGCGGCGCTCGGTCAT; 2'-O-(2-methoxyethyl) modified ASO, pattern not given here) [OGX-427, 2′-O-(2-methoxyethyl) ASO from OncoGenex corresponding to the human Hsp27 translation initiation site]”, the “TCTP mRNA expression level” value with TCTP [2] (LNCaP cells treated by OGX-427) was “without any change”. Also, the “TCTP protein level lower than OGX-427-control” value in the data set on TCTP [2] (LNCaP cells, western blot) amounted to 70%.

As to “5′-TGGTTCATGACAATATCGAC-3′ (all phosphorothioate, sugars by position and methylation of C not given here) [ASO14]”, the “enhancement of docetaxel sensitivity” value with PC-3 cells was “same effect”. Further, in the data set on TCTP [1], the “ability to inhibit TCTP expression” value was “strong ability to inhibit TCTP expression” and the “best ability to inhibit specifically TCTP expression” value was “best ability to inhibit specifically TCTP expression”.

In the case of `CC(C)C[C@@H](C=O)NC(=O)[C@H](CC(C)C)NC(=O)[C@H](CC(C)C)NC(=O)OCc1ccccc1` [MG132] (Cbz-Leu-Leu-Leu-aldehyde), the TCTP half-life result in the data set on TCTP [3] (PC-3 cells after OGX-427 treatment, MG132 10 μmol/L) is given as “prolonged the half-life of TCTP”.

For `C[C@@H]1C[C@@H]([C@H](O)CC2CC(=O)NC(=O)C2)C(=O)[C@@H](C)C1` [cycloheximide], the entries for the “TCTP protein levels decrease” value in the data set with TCTP [3] (24 h) and in the data set with TCTP [3] (48 h) were 40% and 60%, respectively.
